Experimental data taken from patent US20080254003A1, “Differentiation of Human Embryonic Stem Cells and Cardiomyocytes and Cardiomyocyte Progenitors Derived Therefrom” (priority 2004, published 2008).

Test system: HESC (hES2) co-cultured with END-2 cells
Assay: HESC-END-2 co-culture, scoring of beating areas
Type: cell-based, human
Conditions: 10^−4 M ascorbic acid, serum-free HESC-END-2 co-culture, day 12, 12-well plates, n=6
Experimental: END-2 cells and HESC lines hES2, hES3 and hES4 cells (passage number between 41-84) were cultured as described previously in Reubinoff B E, Pera M F, Fong C Y et al. Embryonic stem cell lines from human blastocysts: somatic differentiation in vitro. Nat Biotechnol 2000; 18:399-404 and Mummery C, Ward-van Oostwaard D, Doevendans P et al. Differentiation of human embryonic stem cells to cardiomyocytes: role of coculture with visceral endoderm-like cells. Circulation 2003; 107:2733-2740. To initiate co-cultures, END-2 cell cultures, treated for 3 hr with mitomycin C (mit.C; 10 μg/ml), replaced mouse embryonic fibroblasts (MEFs) as feeders for hES cells (Mummery et al (2003) and Mummery C L, van Achterberg T A, van den Eijnden-van Raaij A J et al. Visceral-endoderm-like cell lines induce differentiation of murine P19 embryonal carcinoma cells. Differentiation 1991; 46:51-60). As a control HESC were also grown on MEFs for the same period under the same culture conditions. In standard co-cultures, cells were grown in 12-well plates in DMEM containing L-glutamine, insulin-transferrin-selenium, non-essential amino acids, 90 μM β-mercaptoethanol, penicillin/streptomycin, and 20% FCS (Multicell, Wisent Inc, Canada). Co-cultures were then grown for up to 3 weeks and scored for the presence of areas of beating muscle from 5 days onwards. […]

O=C1O[C@H]([C@@H](O)CO)C(O)=C1O [ascorbic acid]
increase in the number of beating areas compared to untreated serum-free co-cultures: 40%
